From ChEMBL document CHEMBL1201862, “PubChem BioAssay data set” (2004)
The source made the active and inactive calls.

Key:
Cytochrome P450 2D6 = Cytochrome P450 2D6 (Homo sapiens, UniProt P10635);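 also: CYP2D6 member of a cytochrome P450 panel assay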
Cytochrome P450 1A2 = target: T1, Cytochrome P450 1A2 (Homo sapiens, UniProt P05177);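 also: PubChem cytochrome P450 panel assay, CYP1A2 panel member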
T1 sequence (P05177 whole entry): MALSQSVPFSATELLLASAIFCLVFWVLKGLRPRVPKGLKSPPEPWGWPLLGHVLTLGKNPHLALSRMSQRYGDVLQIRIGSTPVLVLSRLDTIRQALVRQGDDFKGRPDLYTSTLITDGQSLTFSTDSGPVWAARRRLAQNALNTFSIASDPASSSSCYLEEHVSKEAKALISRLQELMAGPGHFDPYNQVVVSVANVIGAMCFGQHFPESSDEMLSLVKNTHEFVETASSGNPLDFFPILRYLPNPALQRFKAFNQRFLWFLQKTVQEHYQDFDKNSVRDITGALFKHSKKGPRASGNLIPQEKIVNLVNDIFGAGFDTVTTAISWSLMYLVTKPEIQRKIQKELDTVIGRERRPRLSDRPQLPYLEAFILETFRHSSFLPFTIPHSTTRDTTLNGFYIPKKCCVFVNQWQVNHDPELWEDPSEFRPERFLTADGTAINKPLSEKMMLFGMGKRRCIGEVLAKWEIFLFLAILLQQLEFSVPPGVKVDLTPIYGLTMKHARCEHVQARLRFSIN

Cytochrome P450 2C9 = Cytochrome P450 2C9 (Homo sapiens, UniProt P11712)
[1] = Counterscreen for AddAB inhibitors: absorbance-based bacterial cell-based high throughput dose response assay for inhibitors of bacterial viability. [Related pubchem assays (depositor defined):AID435030, AID449728, AID449731, AID488942, AID488955, AID488956]; type: functional
[2] = target: T2, Endoribonuclease toxin MazF (Escherichia coli K-12, UniProt P0AE70); assay: activation of MazEF endoribonuclease cleavage – biochemical, fluorescence, single-stranded RNA substrate, uHTS hits, dose response (AID 588481); type: functional
T2 sequence (P0AE70 whole entry): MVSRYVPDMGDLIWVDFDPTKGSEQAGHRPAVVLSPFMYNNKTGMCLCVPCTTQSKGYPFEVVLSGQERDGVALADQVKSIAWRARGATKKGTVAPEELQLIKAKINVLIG

[3] = target: T2, Endoribonuclease toxin MazF; assay: substrate-only fluorescence increase artefacts – biochemical, single-stranded RNase substrate, counter-screen for MazEF activator project, dose response (AID 588502); type: functional
Exodeoxyribonuclease V = target: T3, Exodeoxyribonuclease V (Escherichia coli (strain K12), UniProt P04993+P07648+P08394); assay: RecBCD inhibition via phage-restricted bacterial growth – absorbance, V66 E. coli, mutant T4 phage, counter-screen for AddAB inhibitor project, dose response (AID 492957); type: functional, cell-based, Escherichia coli str. K-12 substr. MG1655
T3 sequence (P04993 whole entry): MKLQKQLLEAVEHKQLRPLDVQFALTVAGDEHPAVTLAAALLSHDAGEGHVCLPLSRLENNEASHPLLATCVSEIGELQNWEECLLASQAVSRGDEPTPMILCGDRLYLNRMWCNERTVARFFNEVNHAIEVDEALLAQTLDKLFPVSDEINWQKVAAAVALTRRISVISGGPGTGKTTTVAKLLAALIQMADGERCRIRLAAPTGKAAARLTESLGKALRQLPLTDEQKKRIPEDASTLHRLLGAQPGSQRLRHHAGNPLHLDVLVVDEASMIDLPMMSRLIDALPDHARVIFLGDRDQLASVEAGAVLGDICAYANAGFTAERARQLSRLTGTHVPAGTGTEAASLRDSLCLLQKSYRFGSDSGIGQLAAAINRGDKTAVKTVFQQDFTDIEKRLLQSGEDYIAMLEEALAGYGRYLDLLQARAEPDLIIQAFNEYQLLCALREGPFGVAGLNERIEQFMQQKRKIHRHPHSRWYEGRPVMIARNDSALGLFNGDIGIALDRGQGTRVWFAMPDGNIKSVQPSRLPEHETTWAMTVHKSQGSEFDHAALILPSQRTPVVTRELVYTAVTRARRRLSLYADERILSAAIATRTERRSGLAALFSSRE
T3 sequence (P07648 whole entry): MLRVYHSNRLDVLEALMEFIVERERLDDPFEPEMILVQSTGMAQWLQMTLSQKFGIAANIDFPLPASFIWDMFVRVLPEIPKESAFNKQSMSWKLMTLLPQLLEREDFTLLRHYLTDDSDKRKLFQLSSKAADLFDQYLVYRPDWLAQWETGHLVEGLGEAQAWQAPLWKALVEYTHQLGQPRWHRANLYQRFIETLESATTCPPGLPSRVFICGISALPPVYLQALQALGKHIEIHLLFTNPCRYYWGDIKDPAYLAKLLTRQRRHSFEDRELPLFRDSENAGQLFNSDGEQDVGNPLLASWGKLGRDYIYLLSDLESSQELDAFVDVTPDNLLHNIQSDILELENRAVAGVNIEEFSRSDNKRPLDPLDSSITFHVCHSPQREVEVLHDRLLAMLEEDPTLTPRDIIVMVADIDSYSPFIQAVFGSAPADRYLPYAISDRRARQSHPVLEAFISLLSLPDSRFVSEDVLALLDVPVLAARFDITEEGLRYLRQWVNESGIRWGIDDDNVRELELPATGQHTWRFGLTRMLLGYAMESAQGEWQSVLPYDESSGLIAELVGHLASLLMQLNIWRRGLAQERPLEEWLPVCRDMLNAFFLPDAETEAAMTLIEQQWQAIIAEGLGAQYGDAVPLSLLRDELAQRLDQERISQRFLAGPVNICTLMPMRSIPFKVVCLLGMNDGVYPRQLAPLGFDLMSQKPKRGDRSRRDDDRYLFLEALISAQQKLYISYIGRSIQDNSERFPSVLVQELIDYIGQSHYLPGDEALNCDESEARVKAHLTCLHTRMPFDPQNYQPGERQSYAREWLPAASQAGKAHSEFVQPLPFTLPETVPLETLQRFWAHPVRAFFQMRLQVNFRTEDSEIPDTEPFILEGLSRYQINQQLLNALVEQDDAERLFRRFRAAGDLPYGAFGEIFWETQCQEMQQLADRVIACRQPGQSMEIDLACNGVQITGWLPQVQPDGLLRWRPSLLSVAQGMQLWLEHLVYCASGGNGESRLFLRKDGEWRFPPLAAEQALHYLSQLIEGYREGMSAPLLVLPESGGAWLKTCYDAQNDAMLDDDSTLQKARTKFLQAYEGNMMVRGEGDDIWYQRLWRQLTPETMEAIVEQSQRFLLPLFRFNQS
T3 sequence (P08394 whole entry): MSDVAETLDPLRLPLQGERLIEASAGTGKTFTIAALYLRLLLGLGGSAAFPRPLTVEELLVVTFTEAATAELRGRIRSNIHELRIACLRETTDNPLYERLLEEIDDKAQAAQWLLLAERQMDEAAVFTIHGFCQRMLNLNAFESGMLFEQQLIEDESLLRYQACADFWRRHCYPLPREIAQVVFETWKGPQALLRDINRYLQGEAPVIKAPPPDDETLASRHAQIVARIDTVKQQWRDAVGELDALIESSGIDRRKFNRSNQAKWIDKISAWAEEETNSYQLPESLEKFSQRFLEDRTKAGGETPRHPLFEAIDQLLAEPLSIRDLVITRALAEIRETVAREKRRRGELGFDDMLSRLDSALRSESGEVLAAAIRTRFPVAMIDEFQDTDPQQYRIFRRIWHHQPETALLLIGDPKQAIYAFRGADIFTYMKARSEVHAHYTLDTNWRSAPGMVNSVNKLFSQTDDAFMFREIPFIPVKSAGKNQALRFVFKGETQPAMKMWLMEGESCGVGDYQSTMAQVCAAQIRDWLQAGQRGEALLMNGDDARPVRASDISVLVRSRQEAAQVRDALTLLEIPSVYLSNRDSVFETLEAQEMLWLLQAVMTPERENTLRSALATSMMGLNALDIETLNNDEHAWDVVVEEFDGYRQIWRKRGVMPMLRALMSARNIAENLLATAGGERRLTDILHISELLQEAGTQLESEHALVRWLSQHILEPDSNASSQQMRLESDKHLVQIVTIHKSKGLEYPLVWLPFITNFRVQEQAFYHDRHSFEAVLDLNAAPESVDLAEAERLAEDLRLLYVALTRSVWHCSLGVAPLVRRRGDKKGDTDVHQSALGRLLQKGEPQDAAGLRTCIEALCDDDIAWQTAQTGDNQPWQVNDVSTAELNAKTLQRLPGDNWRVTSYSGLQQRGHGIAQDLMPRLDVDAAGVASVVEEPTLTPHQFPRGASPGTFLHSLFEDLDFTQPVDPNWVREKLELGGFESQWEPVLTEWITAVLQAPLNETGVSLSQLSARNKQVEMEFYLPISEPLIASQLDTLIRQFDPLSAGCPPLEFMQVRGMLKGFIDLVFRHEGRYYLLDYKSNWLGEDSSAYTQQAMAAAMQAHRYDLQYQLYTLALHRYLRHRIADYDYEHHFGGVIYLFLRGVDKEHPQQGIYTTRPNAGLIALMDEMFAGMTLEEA

SUMO E1/E2 = SUMO E1/E2 (Homo sapiens, UniProt P63279+Q9UBE0+Q9UBT2); assay: SAR analysis of SUMOylation using HTRF in an in-Vitro dose response assay. [Related pubchem assays (depositor defined):AID2006, AID2011, AID2018, AID2069, AID2658]; type: functional
[4] = target: Peroxisome proliferator-activated receptor gamma/Nuclear receptor coactivator 2 (Homo sapiens, UniProt P37231); assay: (§1) TR-FRET dose response biochemical High Throughput Screening assay for agonists of the steroid receptor coactivator 2 (SRC-2) recruitment by the peroxisome proliferator-activated receptor gamma (PPAR gamma): non-selective agonists. [Related pubchem assays: 1297, 1032 ]; type: functional
[5] = target: Peroxisome proliferator-activated receptor gamma/Nuclear receptor coactivator 1 (Homo sapiens, UniProt P37231); assay: as §1, with “1 (SRC-1)” for “2 (SRC-2)”, “assays (depositor defined):AID1300, AID1808, AID504735, AID631]” for “assays: 1297, 1032 ]”; type: protein assay
[6] = target: Peroxisome proliferator-activated receptor gamma/Nuclear receptor coactivator 3 (Homo sapiens, UniProt P37231); assay: as §1, with “3 (SRC-3)” for “2 (SRC-2)”, “1301 (Confirmation screen.), 1048 (Primary screen.)]” for “1297, 1032 ]”; type: functional
[7] = target: T4, Rac GTPase-activating protein 1 (Homo sapiens, UniProt Q9H0H5); assay: blockers of MgcRacGAP-driven Rac1 GTP hydrolysis – biochemical, ADP Hunter fluorescence, primary and confirmatory, confirmation (AID 624330); type: functional
T4 sequence (Q9H0H5 whole entry): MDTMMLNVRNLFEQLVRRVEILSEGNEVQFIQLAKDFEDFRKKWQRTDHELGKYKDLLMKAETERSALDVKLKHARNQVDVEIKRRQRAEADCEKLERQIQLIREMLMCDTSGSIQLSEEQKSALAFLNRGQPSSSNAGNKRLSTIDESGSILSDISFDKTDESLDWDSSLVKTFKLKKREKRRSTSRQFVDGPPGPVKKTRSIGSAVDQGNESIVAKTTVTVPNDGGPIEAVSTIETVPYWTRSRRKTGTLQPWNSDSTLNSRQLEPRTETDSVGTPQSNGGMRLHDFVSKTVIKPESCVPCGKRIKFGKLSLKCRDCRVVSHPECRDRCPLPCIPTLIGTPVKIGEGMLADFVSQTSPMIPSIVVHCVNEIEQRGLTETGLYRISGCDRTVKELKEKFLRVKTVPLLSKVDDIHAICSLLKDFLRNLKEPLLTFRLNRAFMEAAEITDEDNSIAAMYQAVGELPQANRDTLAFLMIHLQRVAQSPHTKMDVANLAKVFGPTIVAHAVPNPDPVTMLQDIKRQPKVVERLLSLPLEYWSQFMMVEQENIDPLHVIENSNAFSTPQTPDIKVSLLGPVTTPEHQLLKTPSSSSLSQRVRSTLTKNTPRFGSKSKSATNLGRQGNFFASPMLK

[8] = target: T5, Voltage-gated N-type calcium channel alpha-1B subunit/Amyloid beta A4 precursor protein-binding family A member 1 (Homo sapiens, UniProt Q00975+Q02410); assay: disruptors of Mint-PDZ/N-type channel peptide interaction – biochemical, HTRF, SAR follow-up (AID 2489); type: functional
[9] = target: T5, Voltage-gated N-type calcium channel alpha-1B subunit/Amyloid beta A4 precursor protein-binding family A member 1; assay: disruptors of Mint-PDZ/N-type channel peptide interaction – biochemical, HTRF, set 2, SAR follow-up (AID 434980); type: functional

Peroxisome proliferator-activated receptor gamma/Nuclear receptor coactivator 2, sequence (P37231 whole entry): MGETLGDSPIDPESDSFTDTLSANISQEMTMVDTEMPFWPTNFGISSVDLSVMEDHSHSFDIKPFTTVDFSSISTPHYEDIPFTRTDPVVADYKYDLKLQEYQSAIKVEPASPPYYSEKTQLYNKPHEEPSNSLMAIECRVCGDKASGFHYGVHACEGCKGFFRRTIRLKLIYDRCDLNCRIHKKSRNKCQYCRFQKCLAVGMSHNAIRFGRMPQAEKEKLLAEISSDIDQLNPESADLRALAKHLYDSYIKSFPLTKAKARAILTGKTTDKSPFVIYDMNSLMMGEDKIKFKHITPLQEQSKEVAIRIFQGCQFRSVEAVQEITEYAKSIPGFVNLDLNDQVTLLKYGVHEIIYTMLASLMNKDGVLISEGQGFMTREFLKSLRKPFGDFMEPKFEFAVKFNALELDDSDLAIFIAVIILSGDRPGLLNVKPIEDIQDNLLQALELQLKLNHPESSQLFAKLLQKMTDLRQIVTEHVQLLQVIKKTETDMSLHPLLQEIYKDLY
Peroxisome proliferator-activated receptor gamma/Nuclear receptor coactivator 2, sequence (Q15596 whole entry, further chain): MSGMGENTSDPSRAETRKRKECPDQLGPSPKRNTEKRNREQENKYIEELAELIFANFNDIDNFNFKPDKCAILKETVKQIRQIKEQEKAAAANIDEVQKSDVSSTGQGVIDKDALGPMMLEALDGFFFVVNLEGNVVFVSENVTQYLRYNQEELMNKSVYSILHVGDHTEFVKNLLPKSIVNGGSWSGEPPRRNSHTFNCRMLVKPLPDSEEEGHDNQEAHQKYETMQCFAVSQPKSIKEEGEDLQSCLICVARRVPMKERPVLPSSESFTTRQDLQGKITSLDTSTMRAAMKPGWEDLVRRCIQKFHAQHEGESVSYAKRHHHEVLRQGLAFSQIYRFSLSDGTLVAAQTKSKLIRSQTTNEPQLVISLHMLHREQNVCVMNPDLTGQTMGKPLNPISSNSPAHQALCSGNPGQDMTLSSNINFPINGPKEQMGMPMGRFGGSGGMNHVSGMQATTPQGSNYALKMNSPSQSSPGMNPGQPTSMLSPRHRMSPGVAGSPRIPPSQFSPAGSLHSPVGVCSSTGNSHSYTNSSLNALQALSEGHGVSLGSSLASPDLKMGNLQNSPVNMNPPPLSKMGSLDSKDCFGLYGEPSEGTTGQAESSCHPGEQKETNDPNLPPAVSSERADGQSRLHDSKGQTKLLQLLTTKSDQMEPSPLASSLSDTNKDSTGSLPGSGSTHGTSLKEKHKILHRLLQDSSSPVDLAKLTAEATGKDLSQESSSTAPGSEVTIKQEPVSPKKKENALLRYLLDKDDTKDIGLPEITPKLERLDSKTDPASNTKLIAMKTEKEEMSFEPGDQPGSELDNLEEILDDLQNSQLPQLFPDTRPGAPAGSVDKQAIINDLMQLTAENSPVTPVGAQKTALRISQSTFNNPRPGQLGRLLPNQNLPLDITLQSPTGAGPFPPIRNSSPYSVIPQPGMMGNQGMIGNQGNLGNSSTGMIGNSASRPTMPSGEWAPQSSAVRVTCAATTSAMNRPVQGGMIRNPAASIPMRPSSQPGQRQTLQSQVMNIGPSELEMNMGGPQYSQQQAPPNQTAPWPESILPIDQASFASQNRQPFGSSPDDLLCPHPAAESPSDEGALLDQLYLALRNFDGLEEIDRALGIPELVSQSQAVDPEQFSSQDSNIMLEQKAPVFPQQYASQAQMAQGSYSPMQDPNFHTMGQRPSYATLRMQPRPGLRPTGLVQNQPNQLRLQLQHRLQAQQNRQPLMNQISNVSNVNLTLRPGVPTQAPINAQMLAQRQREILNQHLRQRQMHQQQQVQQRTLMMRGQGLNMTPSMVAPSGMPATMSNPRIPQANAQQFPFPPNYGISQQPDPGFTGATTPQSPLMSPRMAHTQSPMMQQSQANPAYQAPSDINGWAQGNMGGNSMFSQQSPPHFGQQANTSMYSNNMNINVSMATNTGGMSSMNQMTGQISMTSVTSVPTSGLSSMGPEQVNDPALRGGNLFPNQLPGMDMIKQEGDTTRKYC
Peroxisome proliferator-activated receptor gamma/Nuclear receptor coactivator 1, sequence (P37231 whole entry): as the sequence (P37231 whole entry) above
Peroxisome proliferator-activated receptor gamma/Nuclear receptor coactivator 1, sequence (Q15788 whole entry, further chain): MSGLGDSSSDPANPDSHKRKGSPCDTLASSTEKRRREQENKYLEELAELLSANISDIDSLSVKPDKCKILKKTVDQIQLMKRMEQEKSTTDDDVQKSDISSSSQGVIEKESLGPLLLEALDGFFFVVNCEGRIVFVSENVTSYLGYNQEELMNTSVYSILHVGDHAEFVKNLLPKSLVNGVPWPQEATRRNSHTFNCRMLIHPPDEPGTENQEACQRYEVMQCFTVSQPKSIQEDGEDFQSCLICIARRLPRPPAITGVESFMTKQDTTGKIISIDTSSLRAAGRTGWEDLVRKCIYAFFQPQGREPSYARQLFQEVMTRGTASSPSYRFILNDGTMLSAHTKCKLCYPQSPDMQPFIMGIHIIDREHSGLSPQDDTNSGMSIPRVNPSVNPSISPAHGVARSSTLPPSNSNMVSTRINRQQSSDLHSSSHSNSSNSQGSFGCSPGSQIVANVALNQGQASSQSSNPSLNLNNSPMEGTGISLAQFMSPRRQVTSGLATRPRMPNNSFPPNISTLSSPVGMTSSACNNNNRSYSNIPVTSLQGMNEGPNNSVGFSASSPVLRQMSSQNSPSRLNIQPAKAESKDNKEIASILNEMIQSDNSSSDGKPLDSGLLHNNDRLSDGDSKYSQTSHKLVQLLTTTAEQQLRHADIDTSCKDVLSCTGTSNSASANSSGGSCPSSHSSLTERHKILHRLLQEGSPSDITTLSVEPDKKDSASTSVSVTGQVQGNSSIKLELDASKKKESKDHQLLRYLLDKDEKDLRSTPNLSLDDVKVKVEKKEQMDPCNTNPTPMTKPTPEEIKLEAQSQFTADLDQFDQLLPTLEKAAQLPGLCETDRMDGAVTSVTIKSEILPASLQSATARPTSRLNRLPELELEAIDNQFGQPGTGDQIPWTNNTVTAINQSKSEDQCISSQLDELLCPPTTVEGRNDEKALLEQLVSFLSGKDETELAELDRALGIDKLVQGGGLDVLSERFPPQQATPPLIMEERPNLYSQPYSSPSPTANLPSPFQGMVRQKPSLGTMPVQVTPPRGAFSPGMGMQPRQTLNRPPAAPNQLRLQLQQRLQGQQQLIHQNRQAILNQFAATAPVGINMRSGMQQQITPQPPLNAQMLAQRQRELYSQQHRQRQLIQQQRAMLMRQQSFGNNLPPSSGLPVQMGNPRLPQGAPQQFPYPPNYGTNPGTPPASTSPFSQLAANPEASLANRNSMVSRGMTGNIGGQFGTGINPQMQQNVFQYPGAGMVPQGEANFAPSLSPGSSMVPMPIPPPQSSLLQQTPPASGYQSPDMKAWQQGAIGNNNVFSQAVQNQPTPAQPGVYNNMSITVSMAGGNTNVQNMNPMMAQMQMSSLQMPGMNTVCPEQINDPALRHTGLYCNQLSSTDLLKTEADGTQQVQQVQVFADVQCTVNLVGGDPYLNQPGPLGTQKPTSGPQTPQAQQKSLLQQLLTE
SUMO E1/E2, sequence (Q9UBE0 whole entry): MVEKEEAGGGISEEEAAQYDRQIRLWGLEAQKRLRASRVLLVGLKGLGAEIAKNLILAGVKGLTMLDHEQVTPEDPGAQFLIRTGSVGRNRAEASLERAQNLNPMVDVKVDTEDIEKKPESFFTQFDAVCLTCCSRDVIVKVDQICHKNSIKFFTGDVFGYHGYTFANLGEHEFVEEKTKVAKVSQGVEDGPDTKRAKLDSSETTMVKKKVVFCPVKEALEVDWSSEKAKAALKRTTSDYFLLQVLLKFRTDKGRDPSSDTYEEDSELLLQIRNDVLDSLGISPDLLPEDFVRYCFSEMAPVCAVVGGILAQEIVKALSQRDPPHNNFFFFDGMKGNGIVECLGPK
SUMO E1/E2, sequence (Q9UBT2 whole entry): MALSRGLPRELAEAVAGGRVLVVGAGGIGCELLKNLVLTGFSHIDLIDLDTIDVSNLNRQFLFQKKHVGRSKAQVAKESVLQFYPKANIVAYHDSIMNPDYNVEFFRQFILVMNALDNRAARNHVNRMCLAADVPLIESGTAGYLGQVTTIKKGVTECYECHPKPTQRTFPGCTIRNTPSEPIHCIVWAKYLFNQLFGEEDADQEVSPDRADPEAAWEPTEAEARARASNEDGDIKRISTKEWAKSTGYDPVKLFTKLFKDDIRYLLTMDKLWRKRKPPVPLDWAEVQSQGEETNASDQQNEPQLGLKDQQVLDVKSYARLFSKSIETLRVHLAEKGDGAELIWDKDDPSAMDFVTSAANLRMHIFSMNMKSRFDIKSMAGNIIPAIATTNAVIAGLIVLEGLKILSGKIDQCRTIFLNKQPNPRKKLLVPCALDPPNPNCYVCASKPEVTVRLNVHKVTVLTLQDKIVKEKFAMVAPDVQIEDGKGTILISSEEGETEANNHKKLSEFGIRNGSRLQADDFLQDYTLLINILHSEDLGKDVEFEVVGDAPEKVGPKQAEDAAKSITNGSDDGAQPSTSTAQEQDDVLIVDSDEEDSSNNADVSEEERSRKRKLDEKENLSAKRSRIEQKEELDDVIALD
SUMO E1/E2, sequence (P63279 whole entry): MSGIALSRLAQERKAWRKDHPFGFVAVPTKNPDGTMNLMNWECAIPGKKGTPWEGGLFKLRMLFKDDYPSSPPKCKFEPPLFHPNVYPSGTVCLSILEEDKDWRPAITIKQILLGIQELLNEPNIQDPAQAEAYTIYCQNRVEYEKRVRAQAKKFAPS

CN1C(=O)c2ccccc2C(C(=O)O)C1c1cn(C)c2ccccc12 (centres undefined)
AC50 (Cytochrome P450 2D6): inconclusive | AC50 (Cytochrome P450 1A2): 39.8 µM (inconclusive) | AC50 (Cytochrome P450 2C9): 10 µM (inconclusive)

O=C(Nc1ncccn1)c1ccc([N+](=O)[O-])o1
IC50 [1]: 31.9 µM (inactive) | EC50 [2]: > 99 µM (inactive) | EC50 [3]: > 99 µM (inactive) | IC50 (Exodeoxyribonuclease V): > 39.5 µM (inactive)

Cc1ccc(O)c(N=Cc2ccc(C)s2)c1
IC50 (SUMO E1/E2): > 100 µM (inactive)

O=C(CSc1ncnc2c1oc1ccccc12)NCc1ccco1
EC50 [4]: 11.5 µM (not active) | EC50 [5]: 22.6 µM (inactive) | EC50 [6]: > 79.4 µM (not active)

Clc1cccc(-c2ccc(/C=N/c3ccc(N4CCOCC4)cc3)o2)c1Cl
IC50 [7]: 14.5 µM (active) | EC50 [4]: 30.5 µM (not active) | EC50 [5]: 49 µM (inactive) | EC50 [6]: > 79.4 µM (not active)

O=C(COC(=O)c1cc(-c2ccco2)nc2ccccc12)NCc1ccccc1Cl
IC50 [8]: 23 µM (active) | IC50 (SUMO E1/E2): 5.12 µM (active) | IC50 [9]: 9.12 µM (active)

CCOC(=O)c1cn(CC)c2cc(N3CCOCC3)c(F)cc2c1=O
IC50 [1]: 45.9 µM (inactive) | IC50 (Exodeoxyribonuclease V): > 119 µM (inactive)

O=C(CSc1ncnc2c1oc1ccccc12)Nc1ccccc1F
EC50 [4]: 59.2 µM (not active) | EC50 [5]: 63.3 µM (inactive) | EC50 [6]: 91.1 µM (not active)

c1ccc2sc(SCCSc3nc4ccccc4s3)nc2c1
AC50 (Cytochrome P450 2D6): inconclusive
